The text below walks through data of US6127409A, “Ascorbic acid derivative and vitamin C preparation containing the same” (priority 1997, dated 2000).

Counter-ions that a name gives are not always drawn. Like-named read-outs stand apart in the source and are kept apart here.

The nature of series [1]: Stability: residual ratio (concentration after storage/initial concentration) by HPLC after standing at room temperature for 10 days. Format: physicochemical. The conditions noted are these: water. The method, then:
Then, their residual ratios (concentration after storage/initial concentration) were determined by HPLC through a column Shodex Asahipak NH2P-50 4E (trade name, manufactured by Showa Denko KK) to evaluate stability.

Series [2] deals with normal human adult mamma epidermal Keratinocyte. It counts as cell-based. The conditions noted are these: 20 hours culture. The method, then:
About 6×10^5 cells of a normal human adult mamma epidermal Keratinocyte (available from Kurashiki Boseki KK) were sowed on a 60 mm plate and cultured in a serum-free culturing medium (manufactured by Kurashiki Boseki KK) for 2 hours, and after displacing with the same culturing medium having added thereto from 2 to 50 μM of an ascorbic acid or a derivative thereof, further cultured for 20 hours. The cells were collected by trypsin treatment, and the number of cells was counted by a Coulter Counter Model DN (trade name, manufactured by Coulter Electronics). The cells thus collected were washed with Hank's equilibrium salt solution, pulverized in an ultrasonic homogenizer, filtered through a Mol-cut II (UFPlLCC) (trade name, produced by Nippon Milipore KK) and analyzed by HPLC through a column Shodex Asahipak NH2P-50 4E (trade name, produced by Showa Denko KK). The amount of ascorbic acid and derivatives thereof was measured to determine the intracellular cumulative amount. As a control, culturing was performed in the same manner as above except for not adding ascorbic acid or a derivative thereof, and the ascorbic acid was quantitatively determined. The difference in the intracellular ascorbic acid cumulative amount between the case where ascorbic acid or a derivative thereof was added and the case where ascorbic acid or a derivative thereof was not added is shown in Table 2. […]

With `O=C1O[C@H]([C@@H](O)CO)C(O)=C1OP(=O)([O-])[O-].[Mg+2]` [L-Ascorbic acid-2-phosphate magnesium salt], the remaining at 240 h, 2000 µM in series [1] (2 mM aqueous solution, room temperature, 10 days, HPLC, read-out: Stability (residual ratio: concentration after storage/initial concentration)) amounted to 97%. The figures for the “Intracellular Cumulative Amount (difference from not added)” value in series [2] (addition amount 2 μM) and in series [2] (addition amount 50 μM) were below 0.0002 Pmole/cell and 0.0022 Pmole/cell, respectively.
With `CCCCCCCCCCCCCCCC(=O)OC[C@H](O)[C@H]1OC(=O)C(OP(=O)(O)O)=C1O` [L-Ascorbic acid-2-phosphate-6-palmitate magnesium salt], the remaining at 240 h, 2000 µM in series [1] came out at 98%.
